Experimental data as given in ChEMBL document CHEMBL3045592, “Studies of O,O-dimethyl α-(2,4-dichlorophenoxyacetoxy)ethylphosphonate (HW02) as a new herbicide. 1. Synthesis and herbicidal activity of HW02 and analogues as novel inhibitors of pyruvate dehydrogenase complex” (J Agric Food Chem, 2011).

Tests used:
[1] = test system: Brassica juncea; assay: Post-emergence herbicidal activity against Brassica juncea assessed as growth inhibition at 450 ai g/ha after 20 days by green house test; assay type: functional
[2] = test system: Digitaria sanguinalis; assay: Post-emergence herbicidal activity against Digitaria sanguinalis (hairy crabgrass) assessed as growth inhibition at 75 ai g/ha after 20 days by green house test; assay type: functional
[3] = test system: Digitaria sanguinalis; assay: Pre-emergence herbicidal activity against Digitaria sanguinalis (hairy crabgrass) assessed as growth inhibition at 450 ai g/ha after 20 days by green house test; assay type: functional
[4] = test system: Digitaria sanguinalis; assay: Pre-emergence herbicidal activity against Digitaria sanguinalis (hairy crabgrass) assessed as growth inhibition at 150 ai g/ha after 20 days by green house test; assay type: functional
[5] = test system: Digitaria sanguinalis; assay: Pre-emergence herbicidal activity against Digitaria sanguinalis (hairy crabgrass) assessed as growth inhibition at 75 ai g/ha after 20 days by green house test; assay type: functional
[6] = test system: Chenopodium album; assay: Post-emergence herbicidal activity against Chenopodium album assessed as growth inhibition at 450 ai g/ha after 20 days by green house test; assay type: functional
[7] = test system: Chenopodium album; assay: Post-emergence herbicidal activity against Chenopodium album assessed as growth inhibition at 150 ai g/ha after 20 days by green house test; assay type: functional
[8] = test system: Chenopodium album; assay: Post-emergence herbicidal activity against Chenopodium album assessed as growth inhibition at 75 ai g/ha after 20 days by green house test; assay type: functional
[9] = test system: Chenopodium album; assay: Pre-emergence herbicidal activity against Chenopodium album assessed as growth inhibition at 450 ai g/ha after 20 days by green house test; assay type: functional
[10] = test system: Chenopodium album; assay: Pre-emergence herbicidal activity against Chenopodium album assessed as growth inhibition at 150 ai g/ha after 20 days by green house test; assay type: functional
[11] = test system: Chenopodium album; assay: Pre-emergence herbicidal activity against Chenopodium album assessed as growth inhibition at 75 ai g/ha after 20 days by green house test; assay type: functional
[12] = test system: Amaranthus spinosus; assay: Post-emergence herbicidal activity against Amaranthus spinosus assessed as growth inhibition at 450 ai g/ha after 20 days by green house test; assay type: functional
[13] = test system: Amaranthus spinosus; assay: Post-emergence herbicidal activity against Amaranthus spinosus assessed as growth inhibition at 150 ai g/ha after 20 days by green house test; assay type: functional
[14] = test system: Amaranthus spinosus; assay: Post-emergence herbicidal activity against Amaranthus spinosus assessed as growth inhibition at 75 ai g/ha after 20 days by green house test; assay type: functional
[15] = molecular target: Pyruvate dehydrogenase complex (Vigna radiata var. radiata); assay: Inhibition of PDHc in Vigna radiata var. radiata VC2778A shoot mitochondria assessed as decrease in rate of NADH formation using sodium pyruvate as substrate preincubated for 25 min before substrate addition measured after 1 min by spectrophotometric assay; assay type: protein-complex assay
[16] = test system: Echinochloa crus-galli; assay: Post-emergence herbicidal activity against Echinochloa crus-galli (barnyard grass) assessed as growth inhibition at 450 ai g/ha after 20 days by green house test; assay type: functional
[17] = test system: Abutilon theophrasti; assay: Post-emergence herbicidal activity against Abutilon theophrasti (velvetleaf) assessed as growth inhibition at 75 ai g/ha after 20 days by green house test; assay type: functional
[18] = test system: Abutilon theophrasti; assay: Pre-emergence herbicidal activity against Abutilon theophrasti (velvetleaf) assessed as growth inhibition at 450 ai g/ha after 20 days by green house test; assay type: functional
[19] = test system: Abutilon theophrasti; assay: Pre-emergence herbicidal activity against Abutilon theophrasti (velvetleaf) assessed as growth inhibition at 150 ai g/ha after 20 days by green house test; assay type: functional
[20] = test system: Abutilon theophrasti; assay: Pre-emergence herbicidal activity against Abutilon theophrasti (velvetleaf) assessed as growth inhibition at 75 ai g/ha after 20 days by green house test; assay type: functional
[21] = test system: Cucumis sativus; assay: Herbicidal activity against Cucumis sativus Jin 4 (cucumber) assessed as inhibition of stem growth after 3 days; assay type: functional, organism-based; conditions: Jin 4, 72 h
[22] = test system: Medicago sativa; assay: Post-emergence herbicidal activity against Medicago sativa (alfalfa) assessed as growth inhibition at 1500 ai g/ha after 20 days by green house test; assay type: functional
[23] = test system: Amaranthus retroflexus; assay: Post-emergence herbicidal activity against Amaranthus retroflexus assessed as growth inhibition at 1500 ai g/ha after 20 days by green house test; assay type: functional
[24] = test system: Brassica rapa subsp. oleifera; assay: Post-emergence herbicidal activity against Brassica rapa subsp. oleifera Si Yue Man assessed as growth inhibition at 1500 ai g/ha after 20 days by green house test; assay type: functional
[25] = test system: Digitaria sanguinalis; assay: Post-emergence herbicidal activity against Digitaria sanguinalis (hairy crabgrass) assessed as growth inhibition at 1500 ai g/ha after 20 days by green house test; assay type: functional
[26] = test system: Echinochloa crus-galli; assay: Post-emergence herbicidal activity against Echinochloa crus-galli (barnyard grass) assessed as growth inhibition at 1500 ai g/ha after 20 days by green house test; assay type: functional
[27] = test system: Medicago sativa; assay: Pre-emergence herbicidal activity against Medicago sativa (alfalfa) assessed as growth inhibition at 1500 ai g/ha after 20 days by green house test; assay type: functional
[28] = test system: Amaranthus retroflexus; assay: Pre-emergence herbicidal activity against Amaranthus retroflexus assessed as growth inhibition at 1500 ai g/ha after 20 days by green house test; assay type: functional
[29] = test system: Brassica rapa subsp. oleifera; assay: Pre-emergence herbicidal activity against Brassica rapa subsp. oleifera Si Yue Man assessed as growth inhibition at 1500 ai g/ha after 20 days by green house test; assay type: functional
[30] = test system: Digitaria sanguinalis; assay: Pre-emergence herbicidal activity against Digitaria sanguinalis (hairy crabgrass) assessed as growth inhibition at 1500 ai g/ha after 20 days by green house test; assay type: functional
[31] = test system: Echinochloa crus-galli; assay: Pre-emergence herbicidal activity against Echinochloa crus-galli (barnyard grass) assessed as growth inhibition at 1500 ai g/ha after 20 days by green house test; assay type: functional
[32] = test system: Amaranthus spinosus; assay: Pre-emergence herbicidal activity against Amaranthus spinosus assessed as growth inhibition at 450 ai g/ha after 20 days by green house test; assay type: functional
[33] = test system: Amaranthus spinosus; assay: Pre-emergence herbicidal activity against Amaranthus spinosus assessed as growth inhibition at 150 ai g/ha after 20 days by green house test; assay type: functional
[34] = test system: Amaranthus spinosus; assay: Pre-emergence herbicidal activity against Amaranthus spinosus assessed as growth inhibition at 75 ai g/ha after 20 days by green house test; assay type: functional
[35] = Toxicity against Oryza sativa (rice) assessed as growth inhibition at 450 ai g/ha post-emergent application measured after 20 days by green house crop selectivity test; assay type: organism-based; conditions: in vivo, read-out: GI
[36] = test system: Abutilon theophrasti; assay: Post-emergence herbicidal activity against Abutilon theophrasti (velvetleaf) assessed as growth inhibition at 450 ai g/ha after 20 days by green house test; assay type: functional
[37] = test system: Amaranthus retroflexus; assay: Post-emergence herbicidal activity against Amaranthus retroflexus assessed as growth inhibition at 450 ai g/ha after 20 days by green house test; assay type: functional
[38] = test system: Cucumis sativus; assay: Herbicidal activity against Cucumis sativus Jin 4 (cucumber) assessed as inhibition of root growth after 3 days; assay type: functional, organism-based; conditions: Jin 4, 72 h
[39] = test system: Abutilon theophrasti; assay: Post-emergence herbicidal activity against Abutilon theophrasti (velvetleaf) assessed as growth inhibition at 150 ai g/ha after 20 days by green house test; assay type: functional
[40] = test system: Setaria viridis; assay: Post-emergence herbicidal activity against Setaria viridis (green foxtail) assessed as growth inhibition at 450 ai g/ha after 20 days by green house test; assay type: functional
[41] = test system: Setaria viridis; assay: Post-emergence herbicidal activity against Setaria viridis (green foxtail) assessed as growth inhibition at 150 ai g/ha after 20 days by green house test; assay type: functional
[42] = test system: Setaria viridis; assay: Post-emergence herbicidal activity against Setaria viridis (green foxtail) assessed as growth inhibition at 75 ai g/ha after 20 days by green house test; assay type: functional
[43] = test system: Setaria viridis; assay: Pre-emergence herbicidal activity against Setaria viridis (green foxtail) assessed as growth inhibition at 450 ai g/ha after 20 days by green house test; assay type: functional
[44] = test system: Setaria viridis; assay: Pre-emergence herbicidal activity against Setaria viridis (green foxtail) assessed as growth inhibition at 150 ai g/ha after 20 days by green house test; assay type: functional
[45] = test system: Setaria viridis; assay: Pre-emergence herbicidal activity against Setaria viridis (green foxtail) assessed as growth inhibition at 75 ai g/ha after 20 days by green house test; assay type: functional
[46] = test system: Digitaria sanguinalis; assay: Post-emergence herbicidal activity against Digitaria sanguinalis (hairy crabgrass) assessed as growth inhibition at 450 ai g/ha after 20 days by green house test; assay type: functional
[47] = test system: Digitaria sanguinalis; assay: Post-emergence herbicidal activity against Digitaria sanguinalis (hairy crabgrass) assessed as growth inhibition at 150 ai g/ha after 20 days by green house test; assay type: functional
[48] = test system: Pisum sativum; assay: Post-emergence herbicidal activity against Pisum sativum Zhongwan-2 (pea) assessed as growth inhibition at 450 ai g/ha after 20 days by green house test; conditions: Lathyrus oleraceus

In the case of `COP(=O)(COC(=O)COc1ccc(Cl)cc1Cl)OC`, the “growth inhibition (GI)” value [1] is reported as 100%, the “growth inhibition (GI)” value [2] is reported as 0% and the “growth inhibition (GI)” value [3] is reported as 0%. For the same compound, the “growth inhibition (GI)” value [4] was 0%, the “growth inhibition (GI)” value [5] was 0% and the “growth inhibition (GI)” value [6] was 100%. For the same compound, the “growth inhibition (GI)” value [7] was 99.5%, the “growth inhibition (GI)” value [8] was 82.5% and the “growth inhibition (GI)” value [9] was 52.5%. For the same compound, the “growth inhibition (GI)” value [10] was 0%, the “growth inhibition (GI)” value [11] was 0% and the “growth inhibition (GI)” value [12] was 97.5%. For the same compound, the “growth inhibition (GI)” value [13] was 92.5%, the “growth inhibition (GI)” value [14] was 62.5% and the IC50 [15] was 19.7 µM. For the same compound, the “growth inhibition (GI)” value [16] was 0%, the “growth inhibition (GI)” value [17] was 82.5% and the “growth inhibition (GI)” value [18] was 47.5%. For the same compound, the “growth inhibition (GI)” value [19] was 0%, the “growth inhibition (GI)” value [20] was 0% and the IC50 [21] was 7.79 µM. The “growth inhibition (GI)” value [22] was 90%, the “growth inhibition (GI)” value [23] was 90% and the “growth inhibition (GI)” value [24] was 90%. For the same compound, the “growth inhibition (GI)” value [25] was “<=50%”, the “growth inhibition (GI)” value [26] was “<=50%” and the “growth inhibition (GI)” value [27] was 75%. The “growth inhibition (GI)” value [28] was 90%, the “growth inhibition (GI)” value [29] was 90% and the “growth inhibition (GI)” value [30] was 90%. For the same compound, the “growth inhibition (GI)” value [31] was “<=50%”, the “growth inhibition (GI)” value [32] was 52.5% and the “growth inhibition (GI)” value [33] was 0%. The “growth inhibition (GI)” value [34] was 0%, the inhibition at 480 h [35] was 0% and the “growth inhibition (GI)” value [36] was 100%. The “growth inhibition (GI)” value [37] was 97.5%, the IC50 [38] was 0.0577 µM and the “growth inhibition (GI)” value [39] was 99%. The “growth inhibition (GI)” value [40] was 0%, the “growth inhibition (GI)” value [41] was 0% and the “growth inhibition (GI)” value [42] was 0%. The “growth inhibition (GI)” value [43] was 5%, the “growth inhibition (GI)” value [44] was 0% and the “growth inhibition (GI)” value [45] was 0%. The “growth inhibition (GI)” value [46] was 0%, the “growth inhibition (GI)” value [47] was 0% and the growth inhibition (GI) [48] was 87.5%.
